ChEMBL document CHEMBL2086309, “Discovery of liver selective non-steroidal glucocorticoid receptor antagonist as novel antidiabetic agents” (Bioorg Med Chem Lett, 2012)

Experiments:
[1] = biological target: T1, Glucocorticoid receptor (Homo sapiens, UniProt P04150); test: Displacement of [3H]dexamethasone from human glucocorticoid receptor expressed in baculovirus infected Sf9 cells after overnight incubation by scintillation counting
T1 sequence (P04150 whole entry): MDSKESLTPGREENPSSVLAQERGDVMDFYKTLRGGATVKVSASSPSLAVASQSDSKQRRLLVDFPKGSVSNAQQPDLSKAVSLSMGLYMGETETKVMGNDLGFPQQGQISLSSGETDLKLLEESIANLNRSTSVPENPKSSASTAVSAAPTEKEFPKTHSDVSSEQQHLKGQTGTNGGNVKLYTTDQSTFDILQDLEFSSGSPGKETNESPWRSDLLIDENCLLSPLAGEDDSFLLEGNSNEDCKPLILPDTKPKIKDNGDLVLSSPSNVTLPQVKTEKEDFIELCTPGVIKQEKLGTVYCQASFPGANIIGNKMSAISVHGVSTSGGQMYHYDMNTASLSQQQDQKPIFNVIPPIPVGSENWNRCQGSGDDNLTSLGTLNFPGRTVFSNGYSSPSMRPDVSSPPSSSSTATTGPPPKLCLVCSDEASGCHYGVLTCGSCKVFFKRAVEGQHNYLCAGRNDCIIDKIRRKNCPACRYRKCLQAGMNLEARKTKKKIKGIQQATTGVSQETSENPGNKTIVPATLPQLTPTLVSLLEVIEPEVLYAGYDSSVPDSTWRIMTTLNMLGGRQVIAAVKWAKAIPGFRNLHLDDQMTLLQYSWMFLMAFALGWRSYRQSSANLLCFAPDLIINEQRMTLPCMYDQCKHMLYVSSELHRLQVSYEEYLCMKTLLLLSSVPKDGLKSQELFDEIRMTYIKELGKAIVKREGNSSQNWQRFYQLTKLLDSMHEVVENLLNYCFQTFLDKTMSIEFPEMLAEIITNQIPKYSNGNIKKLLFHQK

[2] = biological target: T1, Glucocorticoid receptor; test: Antagonist activity at human glucocorticoid receptor expressed in GRAF cells assessed as inhibition of dexamethasone-induced alkaline phosphatase expression after 48 hrs by reporter gene assay; assay type: functional, cell-based
[3] = biological target: T2, Glucocorticoid receptor (Rattus norvegicus, UniProt P06536); test: Antagonist activity at glucocorticoid receptor in rat hepatocytes assessed as inhibition of dexamethasone-induced […] expression incubated for 30 mins prior to dexamethasone-induction measured after 4 hrs by reporter gene assay; assay type: functional, cell-based, Hepatocyte
T2 sequence (P06536 whole entry): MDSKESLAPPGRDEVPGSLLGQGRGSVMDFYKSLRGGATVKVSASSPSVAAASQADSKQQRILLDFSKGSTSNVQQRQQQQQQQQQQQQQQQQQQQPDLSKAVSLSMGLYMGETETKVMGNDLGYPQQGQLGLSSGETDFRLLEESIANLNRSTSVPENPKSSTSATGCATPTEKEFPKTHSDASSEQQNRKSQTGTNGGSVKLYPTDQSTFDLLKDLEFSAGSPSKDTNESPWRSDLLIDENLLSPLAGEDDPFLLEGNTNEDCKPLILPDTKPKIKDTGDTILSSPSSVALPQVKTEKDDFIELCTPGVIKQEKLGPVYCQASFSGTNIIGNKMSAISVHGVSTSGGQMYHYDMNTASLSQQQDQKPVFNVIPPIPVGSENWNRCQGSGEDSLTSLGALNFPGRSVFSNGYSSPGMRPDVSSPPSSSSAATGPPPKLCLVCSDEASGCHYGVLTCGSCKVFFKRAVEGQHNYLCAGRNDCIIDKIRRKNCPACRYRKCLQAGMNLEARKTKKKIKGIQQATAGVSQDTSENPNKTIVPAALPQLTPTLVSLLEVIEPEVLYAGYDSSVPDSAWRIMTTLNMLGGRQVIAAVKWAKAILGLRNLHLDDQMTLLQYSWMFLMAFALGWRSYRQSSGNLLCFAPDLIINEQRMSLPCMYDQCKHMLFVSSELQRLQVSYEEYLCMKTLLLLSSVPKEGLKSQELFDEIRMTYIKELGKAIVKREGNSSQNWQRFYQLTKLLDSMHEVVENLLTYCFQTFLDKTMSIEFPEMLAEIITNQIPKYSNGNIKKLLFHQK

[4] = system: Mus musculus; test: Hepatotoxicity in ob/ob mouse assessed as ALT level at 20 mg/kg, po administered BID for 28 days measured st 16 hrs post-last dose (reference value: 259.4+/-18.6 U/L); assay type: toxicity, organism-based; design: dose 20 mg/kg, route oral; settings: in vivo
[5] = system: Rattus norvegicus; test: Activation of hyphalamic-pituitary-adrenal axis in Sprague-Dawley rat assessed as change in corticosterone level at 100 mg/kg, po administered as single dose measured at 2 hrs relative to vehicle-treated control; assay type: organism-based; design: dose 100 mg/kg, route oral; settings: in vivo
[6] = system: Mus musculus; test: Antihyperlipidemic activity in ob/ob mouse assessed as triglyceride level at 10 mg/kg, po administered BID for 28 days measured 16 hrs post-last dose (reference value: 292.5+/-17.5 mg/dL); assay type: functional
[7] = system: Mus musculus; test: Antihyperlipidemic activity in ob/ob mouse assessed as free fatty acid level at 20 mg/kg, po administered BID for 28 days measured 16 hrs post-last dose (reference value: 1.96+/-0.09 mEq/L); assay type: functional
[8] = Drug uptake in Sprague-Dawley rat liver at 20 mg/kg, po administered as single dose measured at 0.5 hrs; assay type: ADME, organism-based; design: dose 20 mg/kg, route oral; settings: read-out: Drug uptake
[9] = system: Mus musculus; test: Antidiabetic activity in ob/ob mouse assessed as decrease in post-prandial blood glucose level at 20 mg/kg, po administered BID for 28 days measured 16 hrs post-last dose relative to vehicle-treated control; assay type: functional; design: scale not given: the % may be the effect or the level left
[10] = system: Mus musculus; test: Antidiabetic activity in ob/ob mouse assessed as insulin level at 20 mg/kg, po administered BID for 28 days measured 16 hrs post-last dose by ELISA (reference value: 13.6+/-2.3 ng/mL); assay type: functional
[11] = Ratio of drug uptake in liver to plasma in Sprague-Dawley rat at 20 mg/kg, po administered as single dose; assay type: ADME, organism-based; design: dose 20 mg/kg, route oral
[12] = system: Rattus norvegicus; test: Activation of hyphalamic-pituitary-adrenal axis in Sprague-Dawley rat assessed as change in ACTH level at 100 mg/kg, po administered as single dose measured at 2 hrs by ELISA relative to vehicle-treated control; assay type: organism-based; design: dose 100 mg/kg, route oral; settings: in vivo
[13] = AUC (0 to infinity) in Sprague-Dawley rat at 20 mg/kg, po administered as single dose; assay type: ADME, organism-based; design: time infinity, dose 20 mg/kg, route oral; settings: plasma
[14] = system: Mus musculus; test: Antihyperlipidemic activity in ob/ob mouse assessed as free fatty acid level at 10 mg/kg, po administered BID for 28 days measured 16 hrs post-last dose (reference value: 1.96+/-0.09 mEq/L); assay type: functional
[15] = system: Mus musculus; test: Hepatotoxicity in ob/ob mouse assessed as AST level at 20 mg/kg, po administered BID for 28 days measured st 16 hrs post-last dose (reference value: 332.2+/-39.1 U/L); assay type: toxicity, organism-based; design: dose 20 mg/kg, route oral; settings: in vivo
[16] = system: Mus musculus; test: Hepatotoxicity in ob/ob mouse assessed as AST level at 10 mg/kg, po administered BID for 28 days measured st 16 hrs post-last dose (reference value: 332.2+/-39.1 U/L); assay type: toxicity, organism-based; design: dose 10 mg/kg, route oral; settings: in vivo
[17] = system: Mus musculus; test: Toxicity in ob/ob mouse assessed as change in body weight at 20 mg/kg, po administered BID for 28 days (reference value: 11.7+/-1.1 g); assay type: organism-based; design: dose 20 mg/kg, route oral; settings: in vivo, 672 h
[18] = Half life in Sprague-Dawley rat at 20 mg/kg, po administered as single dose; assay type: ADME, organism-based; design: dose 20 mg/kg, route oral; settings: in vivo
[19] = system: Mus musculus; test: Antidiabetic activity in ob/ob mouse assessed as insulin level at 10 mg/kg, po administered BID for 28 days measured 16 hrs post-last dose by ELISA (reference value: 13.6+/-2.3 ng/mL); assay type: functional
[20] = system: Mus musculus; test: Hepatotoxicity in ob/ob mouse assessed as ALT level at 10 mg/kg, po administered BID for 28 days measured st 16 hrs post-last dose (reference value: 259.4+/-18.6 U/L); assay type: toxicity, organism-based; design: dose 10 mg/kg, route oral; settings: in vivo
[21] = Cmax in Sprague-Dawley rat at 20 mg/kg, po administered as single dose; assay type: ADME, organism-based; design: dose 20 mg/kg, route oral; settings: in vivo
[22] = system: Mus musculus; test: Toxicity in ob/ob mouse assessed as change in body weight at 10 mg/kg, po administered BID for 28 days (reference value: 11.7+/-1.1 g); assay type: organism-based; design: dose 10 mg/kg, route oral; settings: in vivo, 672 h
[23] = system: Mus musculus; test: Antidiabetic activity in ob/ob mouse assessed as Hb1Ac level at 20 mg/kg, po administered BID for 28 days measured 16 hrs post-last dose (reference value: 9.3+/-0.4%); assay type: functional
[24] = Tmax in Sprague-Dawley rat at 20 mg/kg, po administered as single dose; assay type: ADME, organism-based; design: dose 20 mg/kg, route oral; settings: in vivo
[25] = system: Mus musculus; test: Antidiabetic activity in po dosed ob/ob mouse assessed as decrease in post-prandial blood glucose level administered BID for 28 days measured 16 hrs post-last dose; assay type: functional, organism-based
[26] = system: Mus musculus; test: Antihyperlipidemic activity in ob/ob mouse assessed as cholesterol level at 10 mg/kg, po administered BID for 28 days measured 16 hrs post-last dose (reference value: 331.2+/-17.9 mg/dL); assay type: functional
[27] = system: Mus musculus; test: Antidiabetic activity in ob/ob mouse assessed as Hb1Ac level at 10 mg/kg, po administered BID for 28 days measured 16 hrs post-last dose (reference value: 9.3+/-0.4%); assay type: functional
[28] = system: Mus musculus; test: Antidiabetic activity in ob/ob mouse assessed as decrease in post-prandial blood glucose level at 10 mg/kg, po administered BID for 28 days measured 16 hrs post-last dose relative to vehicle-treated control; assay type: functional; design: scale not given: the % may be the effect or the level left
[29] = system: Mus musculus; test: Antihyperlipidemic activity in ob/ob mouse assessed as triglyceride level at 20 mg/kg, po administered BID for 28 days measured 16 hrs post-last dose (reference value: 292.5+/-17.5 mg/dL); assay type: functional
[30] = AUC in Sprague-Dawley rat at 20 mg/kg, iv administered as single dose; assay type: ADME, organism-based; design: dose 20 mg/kg, route intravenous; settings: plasma
[31] = Oral bioavailability in Sprague-Dawley rat; assay type: ADME, organism-based; settings: in vivo
[32] = system: Mus musculus; test: Antihyperlipidemic activity in ob/ob mouse assessed as cholesterol level at 20 mg/kg, po administered BID for 28 days measured 16 hrs post-last dose (reference value: 331.2+/-17.9 mg/dL); assay type: functional

Work on `O=C(O)Cc1cc(Br)c(N(Cc2ccc(Oc3ccc(Cl)cc3Cl)cc2)Cc2cc(F)cc(F)c2)c(Br)c1` yielded an IC50 [1] of 96 nM, an IC50 [2] of 391 nM and an IC50 [3] of 2600 nM.
Work on `O=C(O)Cc1cc(Br)c(N(Cc2ccc(Oc3ccccc3Cl)cc2)Cc2cc(F)cc(F)c2)c(Br)c1` yielded an IC50 [1] of 235 nM, an IC50 [2] of 512 nM and an IC50 [3] of 3000 nM.
With `COc1ccccc1Oc1ccc(CN(Cc2cc(F)cc(F)c2)c2c(Br)cc(CC(=O)O)cc2Br)cc1` the IC50 [1] was 1260 nM.
In the case of `O=C(O)Cc1cc(Br)c(N(Cc2ccc(Oc3ccc(F)cc3F)cc2)Cc2cc(F)cc(F)c2)c(Br)c1`, the Activity [4] is reported as 247.5 U/L, the Activity [5] is reported as “Non-toxic” and the Activity [6] is reported as 214.3 mg/dL. For the same compound, the Activity [7] was 1.17 mEq/L, the concentration at 0.5 h [8] was 21800 ng/mL and the Activity [9] was 42%. For the same compound, the Activity [10] was 12.3 ng/mL, the Kp [11] was 24.8 and the Activity [12] was “Non-toxic”. For the same compound, the AUC(0-inf) [13] was 1390 ng·h/mL, the Activity [14] was 1.32 mEq/L and the Activity [15] was 353.2 U/L. The Activity [16] was 345.3 U/L, the Activity [17] was 10.9 g and the IC50 [1] was 4.5 nM. The half-life [18] was 5.96 h, the Activity [19] was 14.1 ng/mL and the Activity [20] was 261 U/L. It also gave a Cmax [21] of 880 ng/mL, an IC50 [2] of 211 nM and an Activity [22] of 11.9 g. For the same compound, the Activity [23] was 6%, the Tmax [24] was 0.51 h and the Activity [25] was “Dose-dependent effect”. For the same compound, the Activity [26] was 266.6 mg/dL, the Activity [27] was 6.7% and the IC50 [3] was 900 nM. For the same compound, the Activity [28] was 32%, the Activity [29] was 173.5 mg/dL and the AUC [30] was 13000 ng·h/mL. It also gave a bioavailability [31] of 10.7% and an Activity [32] of 219.5 mg/dL.
Work on `O=C(O)Cc1cc(Br)c(N(Cc2ccc(Oc3ccccc3)cc2)Cc2cc(F)cc(F)c2)c(Br)c1` yielded an IC50 [1] of 722 nM, an IC50 [2] of 1050 nM and an IC50 [3] of 3900 nM.
In the case of `c1ccc(CN(Cc2ccc(Oc3ccccc3)cc2)c2ccccc2)cc1`, the IC50 [1] is reported as greater than 10000 nM.
Compound `O=C(O)Cc1ccc(N(Cc2ccccc2)Cc2ccc(Oc3ccccc3)cc2)cc1` has an IC50 [1] of 1910 nM.
In the case of `Cc1c(NS(C)(=O)=O)cccc1N(Cc1ccc(Oc2ccc(F)c(OCC(=O)O)c2)cc1)Cc1cc(F)cc(F)c1`, the IC50 [1] is reported as 4.6 nM, the IC50 [2] is reported as 432 nM and the IC50 [3] is reported as 1880 nM.
In the case of `O=C(O)c1ccc(N(Cc2ccccc2)Cc2ccc(Oc3ccccc3)cc2)cc1`, the IC50 [1] is reported as greater than 9000 nM.
In the case of `COc1ccc(Oc2ccc(CN(Cc3cc(F)cc(F)c3)c3c(Br)cc(CC(=O)O)cc3Br)cc2)c(OC)c1`, the IC50 [1] is reported as 1600 nM.
